Measurements taken from patent publication EP4731189B1, “SOLID ORAL FORMULATION OF PUDAFENSINE” (Initiator Pharma A/S, priority 2023, dated 2024).
Converted amounts (≈) assume the structure as drawn.

Key:
[1] = system: male subjects with erectile dysfunction (ED); assay: Phase IIb study in erectile dysfunction, IIEF-15 questionnaire efficacy; type: in vivo, humans
Source text: (§1) The study investigated the effects of repeat single oral doses of IP2015 on male subjects with erectile dysfunction (ED) on ability to develop and maintain an erection, as well as safety and tolerability of single oral doses of IP2015, effects on penile rigidity and tumescence during visual stimulation, effects on sperm count and motility, and any possible relationship between plasma levels of IP2015, its efficacy and safety.
(§2) 130 subjects were divided into 3 groups upon which the study was conducted in parallel. Each subject was dosed on four occasions with either 5 mg IP2015, 10 mg IP2015 or matched placebo. In each group, subjects were randomized evenly to each of the three study treatments and received the same treatment at each visit.
The study lasted approximately 8 weeks and consisted of the following: • A screening visit (up to 21 days prior to the baseline visit) • A baseline visit (Day -7) • Outpatient visits on Week 1 (Day 1), Week 2, Week 3 and Week 4 • A follow-up visit a minimum of 7 to 10 days after their final dose.
(§3) On Day -7, and at Week 1 (Day 1), Week 2, Week 3, Week 4 and Follow-up visits, all groups were asked to complete the IIEF-15 questionnaire. Group 2 was asked to complete a Visual Stimulation Assessment using a RigiScan Plus Monitor on Day -7, Week 1 (Day 1) and Week 4. Group 2 was also required to provide blood samples for pharmacokinetic assessment on Week 1 (Day 1) and Week 4. Group 3 was required to provide semen samples on Day -7 and Week 4.
The patients were otherwise healthy male subjects with ED as determined from an IIEF-5 score of ≤16, with a body mass index of 18 to 35 kg/m^2 (inclusive), of any ethnic origin. Subjects were aged between 18 to 59 years, inclusive.
(§4) There were three potential study treatments of 5 mg IP2015, 10 mg IP2015 or matched placebo. In each group, subjects were randomized evenly to each of the three study treatments and received the same treatment on each visit. IP2015 or matched placebo was administered once in the morning of Week 1 (Day 1), Week 2, Week 3, and Week 4 as an oral solution in the fasted state. The dose was taken with 240 mL of water at room temperature. Subjects had fasted 2 hours prior to dosing until 4 hours post-dose. Water was allowed ad libitum except for 1 hour before and 1 hour after dosing.
(§5) Efficacy was assessed through the International Index of Erectile Function (IIEF)-15 questionnaire. The change from baseline in responses to questions of the IIEF-15 questionnaire, including questions regarding erectile function, orgasmic function, sexual desire, intercourse satisfaction and overall satisfaction domain scores, was determined at different time points of the study. RigiScan assessments during the stimulus assessment, and sperm count and motility by semen sample collection was used for efficacy evaluation. Safety was assessed through AE reporting, 12-lead ECG, vital signs, physical examinations, and clinical laboratory evaluations. Pharmacokinetics was assessed by blood sampling.
The results are means±SE. The statistical differences were performed with Mixed Model Repeated Measures (MMRM).

[2] = system: male subjects with erectile dysfunction (ED); assay: Phase IIb study in erectile dysfunction, treatment-emergent adverse events and semen analysis; type: in vivo, humans
Source text: as §1, §2, §3, §4, §5

[3] = Solubility of IP2015 in aqueous and non-aqueous vehicles (visual, HPLC content); type: physicochemical
Protocol: Solubility of IP2015 was determined in both aqueous and non-aqueous vehicles. In non-aqueous liquids, the solubility was visually confirmed in progressive dilutions. The solubility of IP2015 in pH specific aqueous solutions was evaluated, the solubility was visually confirmed, and the content was evaluated by HPLC. Table 2. Solubility of IP2015 in different media.

[4] = 5 mg IP2015 oral solution, overall score, tendency to difference
[5] = pH 5.8 Potassium Phosphate buffer
[6] = pH 6.8 Potassium Phosphate buffer
[7] = pH 7.5 Potassium Phosphate buffer

solubility ([3]; 0.1n hcl, pH 1.2 HCl (0.1N)): 17 µg/mL (≈ 0.0564 mM)
Inference (Ph.Eur) ([3]; N,N-dimethyl acetamide): Very slightly soluble
Inference (Ph.Eur) ([3]; N-methyl-2-pyrrolidone): Very slightly soluble
solubility ([3]; aqueous solutions across physiological pH): < 1000 µg/mL
Inference (Ph.Eur) ([3]; dimethyl sulfoxide): Slightly soluble
solubility ([3]; dimethyl sulfoxide): 5000 to 10000 µg/mL (≈ 16.6 to 33.2 mM)
Inference (Ph.Eur) ([3]; ethanol): Very slightly soluble
solubility ([3]; ethanol): < 1000 µg/mL
Inference (Ph.Eur) ([3]; glycerine): Very slightly soluble
solubility ([3]; glycerine): < 1000 µg/mL
solubility ([3]; n,n-dimethyl acetamide): < 1000 µg/mL
solubility ([3]; n-methyl-2-pyrrolidone): < 1000 µg/mL
Inference (Ph.Eur) ([3]; pH 1.2 HCl (0.1N)): Very slightly soluble
Inference (Ph.Eur) ([3]; pH 3.0 Acetate buffer): Slightly soluble
solubility ([3]; pH 3.0 Acetate buffer): 1170 µg/mL (≈ 3.89 mM)
Inference (Ph.Eur) ([3]; pH 3.0 Citrate buffer): Very slightly soluble
solubility ([3]; pH 3.0 Citrate buffer): 839 µg/mL (≈ 2.78 mM)
Inference (Ph.Eur) ([3]; pH 4.0 Citrate buffer): Very slightly soluble
solubility ([3]; pH 4.0 Citrate buffer): 849 µg/mL (≈ 2.82 mM)
Inference (Ph.Eur) ([3]; pH 4.5 Acetate buffer): Very slightly soluble
solubility ([3]; pH 4.5 Acetate buffer): 981 µg/mL (≈ 3.26 mM)
Inference (Ph.Eur) [3, 5]: Very slightly soluble
solubility [3, 5]: 104 µg/mL (≈ 0.345 mM)
Inference (Ph.Eur) [3, 6]: Very slightly soluble
solubility [3, 6]: 146 µg/mL (≈ 0.484 mM)
Inference (Ph.Eur) [3, 7]: Very slightly soluble
solubility [3, 7]: 84 µg/mL (≈ 0.279 mM)
Inference (Ph.Eur) ([3]; polyethylene glycol 400): Very slightly soluble
solubility ([3]; polyethylene glycol 400): < 1000 µg/mL
Inference (Ph.Eur) ([3]; propylene glycol): Slightly soluble
solubility ([3]; propylene glycol): 1000 to 5000 µg/mL (≈ 3.32 to 16.6 mM)
Inference (Ph.Eur) ([3]; purified water): Very slightly soluble
solubility ([3]; purified water): 738 µg/mL (≈ 2.45 mM)
Structure (SMILES): COc1cc2ccc(O[C@@H]3C[C@H]4CC[C@@H](C3)N4)cc2oc1=O [IP2015, Exo-7-[(-8-azabicyclo[3.2.1]octan-3-yl)oxy]-3-methoxy-chromen-2-one]
overall response to questions of IIEF-15, p versus baseline ([1]; 5 mg IP2015 oral solution, at follow-up, significant): 0.0046
overall response to questions of IIEF-15, p versus placebo ([1]; 5 mg IP2015 oral solution, at follow-up, tendency): 0.07
Q4 in the IIEF-15, overall score, p compared to placebo ([1]; 5 mg IP2015 oral solution, overall score, no difference): 0.44
overall response to questions of IIEF-15, overall score, p versus baseline ([1]; 5 mg IP2015 oral solution, overall score, significant): 0.0032
overall response to questions of IIEF-15, overall score, p versus placebo ([1]; 5 mg IP2015 oral solution, overall score, tendency): 0.10
Q3 in the IIEF-15, overall score, p versus baseline [1, 4]: 0.07
Q3 in the IIEF-15, overall score, p versus placebo [1, 4]: 0.07
Q4 in the IIEF-15, overall score, p versus baseline [1, 4]: 0.056
Q3 in the IIEF-15, p versus baseline ([1]; 5 mg IP2015 oral solution, week 3, MMRM, significant): 0.046
Q3 in the IIEF-15, p versus placebo ([1]; 5 mg IP2015 oral solution, week 3, change from baseline, MMRM, significant): 0.034
overall IIEF-15 score, score change ([1]; low dose (5 mg) of IP2015, called clinically significant): 2
Any TEAE, figure after the comma ([2]; IP2015 5mg, N=42): 61
Any TEAE, n (%) ([2]; IP2015 5mg, N=42): 32 (76.2 %)
TEAE Dizziness, figure after the comma ([2]; IP2015 5mg, N=42): 3
TEAE Dizziness, n (%) ([2]; IP2015 5mg, N=42): 3 (7.1 %)
TEAE Headache, figure after the comma ([2]; IP2015 5mg, N=42): 15
TEAE Headache, n (%) ([2]; IP2015 5mg, N=42): 11 (26.2 %)
TEAE Mild, figure after the comma ([2]; IP2015 5mg, N=42): 56
TEAE Mild, n (%) ([2]; IP2015 5mg, N=42): 29 (69.0 %)
TEAE Moderate, figure after the comma ([2]; IP2015 5mg, N=42): 5
TEAE Moderate, n (%) ([2]; IP2015 5mg, N=42): 3 (7.1%)
TEAE Nausea, figure after the comma ([2]; IP2015 5mg, N=42): 1
TEAE Nausea, n (%) ([2]; IP2015 5mg, N=42): 1 (2.4 %)
TEAE Related*, figure after the comma ([2]; IP2015 5mg, N=42): 19
TEAE Related*, n (%) ([2]; IP2015 5mg, N=42): 10 (23.8 %)
TEAE Severe ([2]; IP2015 5mg, N=42): 0
Any TEAE, figure after the comma ([2]; IP2015 10 mg, N=43): 141
Any TEAE, n (%) ([2]; IP2015 10 mg, N=43): 34 (79.1 %)
TEAE Dizziness, figure after the comma ([2]; IP2015 10 mg, N=43): 15
TEAE Dizziness, n (%) ([2]; IP2015 10 mg, N=43): 12 (27.9 %)
TEAE Headache, figure after the comma ([2]; IP2015 10 mg, N=43): 27
TEAE Headache, n (%) ([2]; IP2015 10 mg, N=43): 16 (37.2 %)
TEAE Mild, figure after the comma ([2]; IP2015 10 mg, N=43): 132
TEAE Mild, n (%) ([2]; IP2015 10 mg, N=43): 33 (76.7%)
TEAE Moderate, figure after the comma ([2]; IP2015 10 mg, N=43): 9
TEAE Moderate, n (%) ([2]; IP2015 10 mg, N=43): 7 (16.3%)
TEAE Nausea, figure after the comma ([2]; IP2015 10 mg, N=43): 15
TEAE Nausea, n (%) ([2]; IP2015 10 mg, N=43): 8 (18.6 %)
TEAE Related*, figure after the comma ([2]; IP2015 10 mg, N=43): 84
TEAE Related*, n (%) ([2]; IP2015 10 mg, N=43): 23 (53.5 %)
TEAE Severe ([2]; IP2015 10 mg, N=43): 0
severe side effects ([2]; any of the doses (5 mg, 10 mg)): No severe side effects were observed
Treatment-emergent adverse effects ([2]; low-dose (5 mg)): comparable to the placebo group
